US20160038505A1, “METHODS AND COMPOSITIONS FOR TREATING IMPULSE CONTROL DISORDER, ANXIETY-RELATED DISORDERS, VIOLENCE AND/OR ANGER, OR REGULATING FOOD INTAKE” (priority 2014, published 2016)

Key:
[1] = Pharmacokinetics of noribogaine in healthy male volunteers (plasma, urine, LCMSMS); settings: for AUC0-216 / AUC0-∞ / Cmax / Tmax / t1/2: mean (SD), n = 6
[2] = Human pharmacokinetic study, single oral tablet, fasting healthy volunteers (serum); type: in vivo; settings: 3 mg, 10 mg, 30 mg or 60 mg single oral tablet
Experimental: In double blind studies, fasting healthy volunteers (6 per cohort) were treated once orally with a tablet of noribogaine HCl. In escalating cohorts, the volunteers received 3 mg, 10 mg, 30 mg or 60 mg noribogaine.

dogs = experiment: Fourteen day repeat dose toxicity in dogs; type: in vivo, dog
Experimental: The objective of this study was to determine the toxicity profile of noribogaine HCl given following oral (gavage) administration to dogs for 14 days according to the following Table 3 below:
Noribogaine HCl was administered to groups of 4 male and 4 female dogs by single oral gavage daily for 14 days at doses of 0, 0.5, 1.0 and 5.0 mg/kg/day. An additional group of 4 male and 4 female dogs received either the vehicle control or 5.0 mg/kg/day for 14 days and were held for an additional 28 days after cessation of dosing to assess recovery from any potential drug-induced changes. The study was conducted under GLP guidelines and included comprehensive examinations of clinical signs, body weight, clinical pathology parameters, ophthalmologic examinations, ECG recordings and analyses of plasma for bioanalytical measurement of drug levels at appropriate intervals during the study. At the termination of the dosing phase and at the termination of the recovery phase, all dogs were subjected to a complete post-mortem examination including gross examination of major organs and histologic examination of an extensive list of tissues. Additional sections of brain were obtained from cerebrum, cerebellus, brain stem and spinal cord and examined histologically to evaluate potential effects on brain histopathology. In addition, these sections were examined with immunohistochemical stains for GFAP for evidence of gliosis and Calbindin for a more comprehensive examination of cerebellar Purkinje cells.

Sprague-Dawley rat = experiment: Single dose toxicity in rats; type: in vivo
Experimental: The objective of this study was to determine the toxicity and toxicokinetic profile of noribogaine HCl following a single oral (gavage) administration in the Sprague-Dawley rat. A single dose of 100, 300 and 800 mg/kg (achieved with doses of 400 mg/kg 3 h+/−30 min apart because of the limitations of maximum dose formulation concentration). Five male rats/group were used. […] Hypoactivity, vocalization, chewing movements, changes in respiration/posture, salivation, stimuli sensitivity, tremors, twitches and penile erection occurred prior to death. […] The NOAEL was determined to be 100 mg/kg.

Sprague-Dawley rats = experiment: Fourteen day repeat dose toxicity in rats; type: in vivo, rat
Experimental: This study was conducted to evaluate the toxicity profile of noribogaine-HCl following oral (gavage) administration to the rat for 14 days following Table 2 below:
Male and female Sprague-Dawley rats, 10/sex/group, were administered 0, 25, 50 or 100 mg/kg noribogaine HCl daily by single oral gavage for 14 days. An additional 5 rats/sex/group in the 0 (control) and 100 mg/kg groups were retained for a 28 day recovery period during which no drug was administered. Six rats/sex/group (3 rats/sex controls) were similarly dosed and sampled on study days 1 and 14 for analysis of noribogaine-HCl concentrations in the blood.

[3] = glucuronide in plasma after 30 mg noribogaine
[4] = glucuronide in plasma after 60 mg noribogaine

Question: Which “time by which noribogaine glucuronide was detected in all subjects” value ([1]; 30 mg and 60 mg noribogaine dose groups, plasma) does the source give for `CC[C@H]1C[C@@H]2C[C@H]3c4[nH]c5ccc(OC6OC(C(=O)O)C(O)C(O)C6O)cc5c4CCN(C2)[C@@H]13` (stereo partly drawn) [Noribogaine glucuronide, noribogaine glucuronide] here?
Answer: ≤ 0.75 h

Question: What about the “proportion of noribogaine glucuronide Cmax and AUC relative to noribogaine” value ([1]; both dose groups (30 mg, 60 mg)) of the same compound?
Answer: 3-4%

Question: And the AUC0-216 [1, 3]?
Answer: 25.7 (9.1) ng · hr/ml

Question: What about the “AUC0-∞” value [1, 3] of the same compound?
Answer: 25.8 (9.3) ng · hr/ml

Question: What about the Cmax [1, 3] of the same compound?
Answer: 1.8 (0.6) ng/ml

Question: And the Tmax [1, 3]?
Answer: 3.0 (0.6) hr

Question: And the t1/2 [1, 3]?
Answer: 20.6 (4.9) hr

Question: And the AUC0-216 [1, 4]?
Answer: 65.0 (21.5) ng · hr/ml

Question: And the “AUC0-∞” value [1, 4]?
Answer: 67.1 (21.9) ng · hr/ml

Question: What about the Cmax [1, 4] of the same compound?
Answer: 4.1 (1.2) ng/ml

Question: And the Tmax [1, 4]?
Answer: 3.8 (1.2) hr

Question: What about the t1/2 [1, 4] of the same compound?
Answer: 23.1 (3.0) hr

Question: And the “time of peak concentrations after noribogaine dosing” value ([1]; glucuronide, 30 mg and 60 mg dose groups, plasma)?
Answer: 3 to 4 h

Question: And the mean half-life ([1]; plasma noribogaine glucuronide, 30 mg and 60 mg dose groups)?
Answer: 21 to 23 h

Question: Which results are given for `CC[C@@H]1C[C@H]2CC3c4[nH]c5ccc(O)cc5c4CCN(C2)C31.Cl` [noribogaine HCl]?
Answer: adverse effects in the trial [2]: no clinically relevant adverse effects; lacrimal gland changes (target tissue) (dogs; 5 mg/kg/day for 14 days): slight to moderate atrophy and degeneration of the acinar cells; lacrimal gland change after recovery (dogs; 5 mg/kg/day, 28 days off drug): clear evidence of regeneration of this lacrimal gland change; clinical observations, body weights, clinical pathology, ophthalmology, ECG, gross lesions (dogs; 0.5, 1.0 and 5.0 mg/kg/day oral for 14 days, dosing or recovery phase): No evidence of adverse effect; NOAEL (dogs; 14 days oral, based on lacrimal gland changes): 1 mg/kg/day; clinical signs (Sprague-Dawley rat; 100 mg/kg single oral): did not show any treatment related signs; clinical signs (Sprague-Dawley rat; 300 mg/kg single oral, persisted until Day 2 in 3/5 rats): Hypoactivity, vocalization, salivation, stimuli sensitivity, loss of limb function and lying on the cage floor; mortality (Sprague-Dawley rat; 800 mg/kg oral gavage (2 x 400 mg/kg 3 h apart), male rats): Mortality occurred in all male rats; NOAEL (Sprague-Dawley rat; single oral dose, male rats): 100 mg/kg; body weight change (Sprague-Dawley rats; 100 mg/kg, females): −2.6%; body weight change (Sprague-Dawley rats; 100 mg/kg, males): −5.5%; food consumption change (Sprague-Dawley rats; 100 mg/kg, males and females): −4.7%; effects on mortality, clinical signs, ophthalmoscopy, hematology, coagulation, clinical chemistry, urinalysis, gross necropsy, histopathology (Sprague-Dawley rats; 25, 50 or 100 mg/kg daily oral gavage for 14 days): no test article-related effects; brain sections stained for GFAP or Calbindin (Sprague-Dawley rats; 14 days): No treatment-related differences in the brain; NOAEL (Sprague-Dawley rats; 14 days oral, highest dose tested): 100 mg/kg; liver weight (Sprague-Dawley rats; mid- and high dose groups, considered incidental): Minor increases in liver weight
